Assays:
[1] = biological target: Histamine H3 receptor (Mus musculus) (UniProt P58406); experiment: In vivo Histamine H3 receptor antagonism, dose required to increase in N-t-methylhistamine levels in Swiss mice brains 90 min after p.o. administration; assay type: functional, organism-based; settings: Brain
Histamine H3 receptor = Histamine H3 receptor (Rattus norvegicus, UniProt Q9QYN8); experiment: In vitro inhibitory activity against Histamine H3 receptor for K+ evoked depolarization-induced release of [3H]histamine from synaptosomes of rat cerebral cortex; assay type: subcellular, Brain
Chain of Histamine H3 receptor (Q9QYN8 whole entry): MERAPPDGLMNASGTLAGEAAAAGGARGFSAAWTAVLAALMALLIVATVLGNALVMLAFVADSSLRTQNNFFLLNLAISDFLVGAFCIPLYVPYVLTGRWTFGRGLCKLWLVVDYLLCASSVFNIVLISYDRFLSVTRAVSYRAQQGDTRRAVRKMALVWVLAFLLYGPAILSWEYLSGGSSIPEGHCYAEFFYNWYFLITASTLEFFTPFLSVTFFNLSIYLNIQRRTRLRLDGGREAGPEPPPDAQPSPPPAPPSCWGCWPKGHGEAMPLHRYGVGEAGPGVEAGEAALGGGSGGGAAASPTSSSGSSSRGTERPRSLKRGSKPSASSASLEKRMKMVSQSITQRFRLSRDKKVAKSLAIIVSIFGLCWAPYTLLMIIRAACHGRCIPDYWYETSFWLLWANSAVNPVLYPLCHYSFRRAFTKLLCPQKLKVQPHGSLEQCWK

Chain of Histamine H3 receptor (Mus musculus) (P58406 whole entry): as the sequence (Q9QYN8 whole entry) above, with T15A, A286T, A290G, R387H, I389V counted along it

Compound	ED50 [1]	Ki (Histamine H3 receptor)
O=C(c1ccc(OCCCc2c[nH]cn2)cc1)C1CC1	0.14 mg/kg	–
CCCCc1ccc(OCCCc2cnc[nH]2)cc1	–	60 nM
O=C(c1ccc(OCCc2c[nH]cn2)cc1)C1CC1	0.21 mg/kg	2.1 nM
O=C(c1ccc(OCc2c[nH]cn2)cc1)C1CC1	2.8 mg/kg	> 500 nM
CC(C)(C)CCC#C[C@@H]1C[C@H]1c1c[nH]cn1	0.12 mg/kg	–
CCCCc1ccc(OCCCc2c[nH]cn2)cc1	0.96 mg/kg	–
O=C(CCCO)c1ccc(OCCCc2c[nH]cn2)cc1	> 10 mg/kg	–
ClCC/C=C/c1ccc(OCCCc2c[nH]cn2)cc1	0.72 mg/kg	–
c1nc(CCCOc2ccc(CC3CC3)cc2)c[nH]1	> 10 mg/kg	–
OC(c1ccc(OCCCc2c[nH]cn2)cc1)C1CC1 (stereo not given)	0.18 mg/kg	0.58 nM
O=C(CCCO)c1ccc(OCCCc2cnc[nH]2)cc1	–	30 nM
O=C(CCCN1CCCC1)c1ccc(OCCCc2c[nH]cn2)cc1	> 10 mg/kg	–
O=C(c1ccc(OCCCCc2c[nH]cn2)cc1)C1CC1	> 10 mg/kg	–
O=C(c1ccc(OCCCCc2cnc[nH]2)cc1)C1CC1	–	113 nM
O/N=C(/c1ccc(OCCCc2c[nH]cn2)cc1)C1CC1	0.21 mg/kg	–
OCCCC1(c2ccc(OCCCc3c[nH]cn3)cc2)OCCO1	> 10 mg/kg	40 nM

Source: ChEMBL document CHEMBL1132788, “Analogues and derivatives of ciproxifan, a novel prototype for generating potent histamine H3-receptor antagonists” (Bioorg Med Chem Lett, 2000)
